Values quoted from earlier work as cited in patent US20230165871A1, “COMBINATION THERAPIES FOR INHIBITION OF POLO-LIKE KINASE 4” (UNIVERSITY HEALTH NETWORK, priority 2020, published 2023).

Tests used:
[1] = test system: cell line and patient-derived xenografts of breast and ovarian cancer; details: tolerable doses
[2] = in vivo
[3] = clinical
cancer cell lines = details: via induction of apoptosis and cell cycle arrest with induction of aneuploidy

- oral bioavailability [2]: orally bioavailable
Structure (SMILES): COc1ccc2c(c1)[C@]1(C[C@H]1c1ccc3c(/C=C/c4ccc(CN5C[C@@H](C)O[C@@H](C)C5)cc4)n[nH]c3c1)C(=O)N2 [Compound (I)]
- anti-tumour effects in xenograft models [1]: potent anti-tumour effects at tolerable doses
- major toxic effects which limit dose [3]: neutropenia, thrombocytopenia, fever, diarrhea and increased liver function tests
- anti-proliferative effects in cancer cell lines (cancer cell lines): potent anti-proliferative effects
